Measured values reported in publication PMC10451034, “Highly Efficient Photosensitizers with Molecular Vibrational Torsion for Cancer Photodynamic Therapy” (ACS Central Science, 2023).

Legend:
[1] = Singlet oxygen quantum yield by DPBF decay curve method; type: physicochemical; conditions: in dichloromethane
Procedure: Afterward, the singlet oxygen yields of the series of molecules were preliminarily measured and analyzed by the 1,3-diphenylisobenzofuran (DPBF) decay curve method (Figures 2d,e and S2). […] Meanwhile, in order to exclude the effect of the rigid structure, ΦΔ of a Cy7-like reference molecule (TCy7C) with a rigidified structure but absence of an oxygen atom was measured. The singlet oxygen yield of TCy7C was 2.2%, even lower than that of TCy7 under the same conditions (Figure S3). […]
Photoexcited singlet oxygen production was detected by employed 1,3-diphenylisobenzofuran (DPBF) as the indicator. The absorbance of DPBF at 415 nm was regulated to about 1.0 in DCM. And the samples were irradiated with 660 nm light for various times, then the absorption spectra of different time nodes were recorded.
The singlet oxygen quantum yield (ΦΔ) was calculated by the following equation:
Where “Φ” represent the singlet oxygen quantum yield , “sam” and “std” represent QTCy7-R and MB, respectively. “m” is the slope of the absorbance of DPBF at 415 nm with time, F=1–10-O.D. (O.D. is the absorbance of samples at 660 nm). […]

[2] = UV-vis absorption, fluorescence emission, absolute fluorescence quantum yield and fluorescence lifetime; type: physicochemical
Procedure: First, the UV–vis absorption and fluorescence emission spectra of the series of compounds were measured and analyzed. […] Concurrently, the Stokes shifts of all four compounds were more than 60 nm (Figure 2a,b and Table 1), which could effectively improve the signal-to-noise ratio (SNR) of fluorescence compared to the ordinary TCy7. The fluorescence lifetimes of all four compounds were within 2 ns, indicating no delayed fluorescence generation (Figure 2c and Table 1). […]
Materials and Instrumentation
All the general chemicals used in this paper are purchased from Energy Chemical Co. and Innochem Chemical Co. unless otherwise specified. All solvents were […]
analytically pure. […]
All the other solvents and reagents used in this study were of analytical grade. All the BALB/c mice were purchased from Liaoning […]
III 500 spectrometers. Absorption and emission spectra for all the compounds were achieved on the Agilent Technologies CARY 60 UV -Vis spectrophotometer and VAEIAN CARY Eclipse fluorescence spectrop hotometer (Serial No. FL0812 -M018), […]
respectively. Unless otherwise specified, all spectroscopic tests were performed in a quartz cell (10×10 mm). Fluorescence quantum yield of all the compounds were measured on the HAMAMATSU absolute fluorescence quantum yield spectrometer (Serial No. C11347). Triplet lifetime of compounds were acquired on LP980 laser flash photolysis spectrometer (Edinburgh Instruments, U.K.). The cell confocal laser scanning microscope (CLSM) images were all obtained by using Olympus FV3000 confocal laser scanning microscope. […]
Figure 4, Figure S6 and Figure S7). The spin-orbital coupling (SOC) values between the S1/S1V and T2 were calculated with ORCA 4.13. Hole-Electron analysis was carried […]
ISC rate constants calculation […]
Triplet lifetime measurements
The triplet life of QTCy7-R was measured by LP980 laser flash photolysis spectrometer (Edinburgh Instruments Ltd.) in combination with a Nd:YAG laser (Surelite I-10, Continuum Electro-Optics, Inc.). The oxygen in the sample was removed by aerating nitrogen for 30 min. The samples (5 μM) were excited by a 610 nm laser pulse (1 Hz, 100 mJ per pulse, fwhm ≈ 7 ns) at 300 K. The triplet state decay kinetics were measured at the maximum absorption wavelengths of each compound.
Fluorescence lifetime and femtosecond time-resolved transient absorption spectra […]
The fluorescence lifetimes and femtosecond time-resolved transient absorption spectra of dyes were recorded on a freshly prepared samples using the time-correlated single photon counting (TCSPC) method (PicoQuant PicoHarp 300) at 300 K. The concentration is 10 μM, solvent is DCM.
Hepatoma carcinoma cells (HepG-2 cells), human mammary carcinoma (MCF-7) and mouse breast cancer cells (4T1) were maintained in Dulbecco’s modified Eagle’s

HepG2 cells = experiment: MTT cytotoxicity assay, HepG2; type: cell-based, human; conditions: Homo sapiens, HepG2, light or radiation study, HepG2, 660 nm irradiation 12 J/cm^2
Description: To further quantitatively explore the in vitro anticancer potency of QTCy7-R, the methyl thiazolyltetrazolium (MTT) assay was employed to detect cell viability. […] Next, we evaluated the cytotoxicity under dark conditions of this series of compounds at high concentrations (Figure 9e), as due to the characteristics of mitochondrial accumulation, QTCy7-Me and QTCy7-Ph might lead to mitochondrial depolarization and apoptosis at high concentrations. However, its IC50 value could still reach about 60 μM, which was almost […] than those of all cyanine photosensitizers reported. […] The photocytotoxicity index value (dark IC50/light IC50) of QTCy7-Ac was >500, manifesting that QTCy7-Ac is a PS with high efficacy but low cytotoxicity, which is extremely promising in clinical application. […]
Cytotoxicity was tested by the reduction of methyl thiazolyl tetrazolium to formazan by succinic acid dehydrogenase in the mitochondria of living cells (MTT assay). HepG2 cells, MCF7 cells and 4T1 cells were seeded to 96-well microplates (Nunc, Denmark) with a density of 1 × 10^5 cells/mL cells in 100 μL DMEM medium and incubated at 37 °C for 24 h. When the cell density reached about 70%, the QTCy7-R with different concentrations (4, 3, 2, 1.5, 1, 0.75, 0.5, 0.25, 0 μM) in PBS were added to the wells of cells in dark condition, respectively. For light groups, the cell incubation conditions were the same as those of the dark group and the cells were further incubated for 2 h, subsequently, the cells were subjected to 660 nm irradiation (20 mW/cm2) for different time (10 min, 5 min and 2.5 min) corresponding to different light doses (12 J/cm2, 6 J/cm2 and 3 J/cm2). Then all the cells were incubated for 12 h, after which the MTT solution in DMEM (0.5 mg/ml, 100 μL) was added to each well and the cells were incubated at 37 °C for another 4 h. The MTT solution was carefully removed and 100 μL DMSO was added to dissolve formazan, and the absorbance of each well was measured by a multifunctional microplate reader at 570 nm and 630 nm. The cell viability was obtained by the following equation: […]
Where “OD” represent the absorbance at 570 nm and 630 nm, “ps” and “control” represent experimental groups and control groups, respectively. […]

| ΦΔ, singlet oxygen yield ([1]; DPBF method) | ΦΔ, singlet oxygen quantum yield ([1]; methylene blue as standard, 660 nm irradiation) | ΦF, absolute fluorescence quantum yield [2] | Δλ, Stokes shift ([2]; in dichloromethane) | λabs, maximum absorption wavelength ([2]; in dichloromethane) | λem, maximum emission wavelength ([2]; in dichloromethane) | τS, fluorescence lifetime ([2]; in dichloromethane) | SMILES | IC50 (HepG2 cells) |
| --- | --- | --- | --- | --- | --- | --- | --- | --- |
| 2.6% | 0.026 | 19.3% | 23 nm | 770 nm | 793 nm | 1.54 ns | CCN1/C(=C/C=C/C=C/C=C/c2sc3ccccc3[n+]2CC)Sc2ccccc21 [TCy7, reference compound] |  |
|  |  |  |  |  |  |  | C=Cc1c(C)c2cc3nc(c(CC(=O)O)c4[nH]c(cc5nc(cc1[nH]2)C(C)=C5CC)c(C)c4C(=O)O)[C@@H](CCC(=O)O)[C@@H]3C [Ce6, chlorin e6, reference compound] | 3.5 µM |
